Source: patent US20250027932A1, “DIFFERENTIATION OF HUMAN TISSUES WITHOUT CILIA FROM PLURIPOTENT STEM CELLS” (University of Washington, priority 2021, published 2025)

Key:
Assay type in all cases: cell-based, human
hPSCs = assay: OCT4 and BRY immunofluorescence in hPSCs after CHIR99021; conditions: increasing doses of CHIR99021 in mTeSR1 for 48 hours; kinesin-2 knockout hPSCs, no significant difference from controls
Method: Cells and organoid cultures were fixed with 4% paraformaldehyde (Electron Microscopy Sciences) for 15 minutes, washed 3 times with Phosphate buffered saline (PBS, Thermo Fisher), blocked for 1 hour with blocking buffer (5% normal donkey serum and 0.3% Triton X-100 in PBS), and incubated overnight with primary antibodies including mouse acetylated α-tubulin (Sigma T7451), rabbit acetylated α-tubulin (Cell Signaling, D20G3), α-fetoprotein (AFP) (R&D MAB1368), α-smooth muscle actin (SMA) (R&D MAB1420), ZO-1 (Invitrogen, 339100), E-Cadherin (Abcam, ab11512), Nephrin (R&D, AF4269), p-Histone H3 (Santa Cruz sc-8656-R), OCT4 (Abcam ab19857), brachyury (BRY) (Santa Cruz sc-17745), SOX2 (Abcam ab97959), and 3-Tubulin III (Tuj1) (Sigma-Aldrich T2200-200UL). After washing with PBS, secondary donkey antibodies conjugated with Alexa-Fluor 488, 555, or 647 (1:500, Thermo Fisher) were applied, or Fluorescein Lotus Lectin (Vector Labs, FL-1321), with DAPI to stain the nuclei. […]
(§1) Fluorescence intensity analysis of BRY and OCT4 was performed on images processed and imaged identically, individual cells were identified automatically using Cell Profiler 2.0 and the average intensity per cell was plotted in BBP. […] Immunoblot band intensity levels were quantified using the ImageJ magic wand tool, normalized to the loading control, and pooled from multiple experiments to determine average and S.E.M. values. […]

[1] = test system: kidney organoid cultures derived from control hPSCs; assay: Organoid lineage differentiation in control cultures (immunofluorescence, 96-wells); conditions: 1 μM SAG or 10 μM cyclopamine from day 1.5 to day 18
Method: (§2) Kidney organoids were generated as previously described (Freedman, B. S. et al. Modelling kidney disease with CRISPR-mutant kidney organoids derived from human pluripotent epiblast spheroids. Nat Commun 6, 8715 (2015)). Briefly, dissociated hPSCs were plated into 96 or 24 well plates coated with 1% Geltrex (Thermo Fisher) in mTeSR1 (STEMCELL Technologies) supplemented with 10 μM Rho-kinase inhibitor Y27632 (Tocris Bioscience). The next morning, mTeSR1 containing 1.5% Geltrex was added to the wells, and the media was changed again to mTeSR1 24 hours later. 72 hours after plating, cells were treated with 12 μM CHIR99021 (Stemgent) in RPMI medium containing 1× Glutamax (Thermo Fisher) with 2 ng/ml recombinant BMP-4 (Peprotech) to induce kidney differentiation. 36 hours after treatment, the medium was changed to RPMI supplemented with B27 (RB medium, Thermo Fisher). RB medium changes were performed every three days. When indicated, organoid cultures were supplemented with 1 μM SAG or 10 μM Cyclopamine (both from Cayman Chemical) starting with the first addition of RB on day 1.5 (36 hours after CHIR99021 treatment on day 0) and maintained thereafter in RB media containing these compounds at all subsequent time points.
Cells and organoid cultures were fixed with 4% paraformaldehyde (Electron Microscopy Sciences) for 15 minutes, washed 3 times with Phosphate buffered saline (PBS, Thermo Fisher), blocked for 1 hour with blocking buffer (5% normal donkey serum and 0.3% Triton X-100 in PBS), and incubated overnight with primary antibodies including mouse acetylated α-tubulin (Sigma T7451), rabbit acetylated α-tubulin (Cell Signaling, D20G3), α-fetoprotein (AFP) (R&D MAB1368), α-smooth muscle actin (SMA) (R&D MAB1420), ZO-1 (Invitrogen, 339100), E-Cadherin (Abcam, ab11512), Nephrin (R&D, AF4269), p-Histone H3 (Santa Cruz sc-8656-R), OCT4 (Abcam ab19857), brachyury (BRY) (Santa Cruz sc-17745), SOX2 (Abcam ab97959), and 3-Tubulin III (Tuj1) (Sigma-Aldrich T2200-200UL). After washing with PBS, secondary donkey antibodies conjugated with Alexa-Fluor 488, 555, or 647 (1:500, Thermo Fisher) were applied, or Fluorescein Lotus Lectin (Vector Labs, FL-1321), with DAPI to stain the nuclei. Stained cells were imaged in PBS using a Nikon AIR confocal microscope or Eclipse TE wide-field microscope.

[2] = test system: hedgehog signaling (GLI3, GLI1) in control hPSC kidney organoid cultures; assay: GLI3 and GLI1 immunoblots of kidney organoid cultures from control hPSCs treated with hedgehog modulators
Method: (§3) KIF3A^−/−, KIF3B^−/− and isogenic control hPSCs were lysed with RIPA buffer containing protease and phosphatase inhibitors (Roche). Protein concentration was determined using a Pierce BCA protein assay kit. 50 μg of total protein was separated in a 4-20% acrylamide gel (Bio-Rad) and analyzed with silver stain (Bio-Rad) or transferred onto a PDVF membrane using standard procedures. 5% milk was used as a blocking agent prior to and during immunoblotting. Blots were probed with antibodies raised against PC1 (Santa Cruz sc-130554), PC2 (Santa Cruz sc-25749), KIF3A (Abcam ab11259), KIF3B (Cell Signaling 13817), […] (Cell Signaling 4970), FLOT1 (Cell Signaling 18634), IFT88 (Proteintech 13967-1-AP), ARL13B (Proteintech 17711-1-AP), GLI1 (Cell Signaling 3538), GLI2 (Abcam ab26056), PTCH1 (Cell Signaling 8358), ALIX (Cell Signaling 2171), ANXA5 (Cell Signaling 8555), GM130 (Cell Signaling 12480), HPS70 (Cell Signaling 4876), CD9 (Cell Signaling 13174), ICAM-1 (Cell Signaling 4915), and EpCAM (Cell Signaling 2626).
as §2
Fluorescence intensity analysis of BRY and OCT4 was performed on images processed and imaged identically, individual cells were identified automatically using Cell Profiler 2.0 and the average intensity per cell was plotted in BBP. Line scan analyses were conducted utilizing the Intensity Profile function in NIS Elements. A single line scan of equal length was performed on each structure, and subsequently these were averaged to generate the graphs, plotting pixel intensity values for each channel on the y-axis against the points along the line on the x-axis. Immunoblot band intensity levels were quantified using the ImageJ magic wand tool, normalized to the loading control, and pooled from multiple experiments to determine average and S.E.M. values. A two-tailed t-test for two samples with unequal variance was applied to determine significance. In cases where a treatment condition was applied, a paired t-test was performed. Statistical analyses were performed in GraphPad Prism 9 software.

[3] = test system: hedgehog signaling (GLI3, GLI1) in KIF3A−/− and KIF3B−/− mutants; assay: GLI3 and GLI1 immunoblots of KIF3A−/− and KIF3B−/− kidney organoid cultures treated with hedgehog modulators; conditions: for GLI3/GLI1 response to prolonged treatment: day 18, 1 μM SAG or 10 μM cyclopamine starting on day 1.5
Method: as §3
Kidney organoids were generated as previously described (Freedman, B. S. et al. Modelling kidney disease with CRISPR-mutant kidney organoids derived from human pluripotent epiblast spheroids. Nat Commun 6, 8715 (2015)). Briefly, dissociated hPSCs were plated into 96 or 24 well plates coated with 1% Geltrex (Thermo Fisher) in mTeSR1 (STEMCELL Technologies) supplemented with 10 μM Rho-kinase inhibitor Y27632 (Tocris Bioscience). The next morning, mTeSR1 containing 1.5% Geltrex was added to the wells, and the media was changed again to mTeSR1 24 hours later. […]
as §1

GLI1 in EV of hPSCs = assay: GLI1 immunoblot of extracellular vesicles (EV) from hPSCs ±SAG; conditions: SAG stimulation
Method: KIF3A^−/−, KIF3B^−/− and isogenic control hPSCs were lysed with RIPA buffer containing protease and phosphatase inhibitors (Roche). Protein concentration was determined using a Pierce BCA protein assay kit. 50 μg of total protein was separated in a 4-20% acrylamide gel (Bio-Rad) and analyzed with silver stain (Bio-Rad) or transferred onto a PDVF membrane using standard procedures. 5% milk was used as a blocking agent prior to and during immunoblotting. […]
as §1

[4] = 1 μM SAG starting on day 1.5, by day 4 of differentiation
[5] = day 18, prolonged 16.5 day treatment, 1 μM SAG

Cc1c[nH]c(-c2cnc(NCCNc3ccc(C#N)cn3)nc2-c2ccc(Cl)cc2Cl)n1 [CHIR99021]
brachyury (BRY) immunofluorescence (hPSCs): dose-dependent upregulation

CNC1CCC(N(Cc2cccc(-c3ccncc3)c2)C(=O)c2sc3ccccc3c2Cl)CC1 (stereo not shown) [SAG]
Kidney organoid differentiation (nephron organoids per well) [1]: impaired | Neuron differentiation (TUJ1+) [1]: significantly suppressed | SOX2+ neuronal progenitor cells [1]: increased | GLI1 levels [2, 4]: increased levels | GLI3R levels [2, 4]: reduced levels | GLI1 [2, 5]: upregulated | GLI3 [2, 5]: strongly downregulated | effect on GLI3 or GLI1 levels ([3]; 1 μM SAG starting on day 1.5): no detectable effect | GLI3/GLI1 response to prolonged treatment [3]: failed to respond | GLI1 in EV (GLI1 in EV of hPSCs; control or PKD1−/− hPSCs): increased after SAG stimulation | GLI1 in EV (GLI1 in EV of hPSCs; kinesin-2 knockouts): undetectable

CC1=C2C[C@H]3[C@@H](CC=C4C[C@@H](O)CC[C@@]43C)[C@@H]2CC[C@]12O[C@@H]1C[C@H](C)CN[C@H]1[C@H]2C [cyclopamine]
Neuron differentiation (TUJ1+) [1]: did not reach statistical significance | SOX2+ neuronal progenitor cells [1]: strong inhibitory effect | GLI3R ([2]; day 18, 10 μM cyclopamine starting on day 1.5): modestly increased | GLI3/GLI1 response to prolonged treatment [3]: failed to respond
